Measurements as given in patent publication US20100285145A1, “GPR 119 MODULATORS” (PFIZER INC, priority 2009, published 2010).
pEC50: −log10 of the molar value. Where “and” joins values, the source holds several entries; their conditions need not be identical. Equal entries are not always repeated.

Experiments:
human GPR119 [1] = target: T1, human GPR119 (Homo sapiens, UniProt Q8TDV5); experiment: cAMP HTRF functional assay (hGPR119 HEK-CRE beta-lactamase cells); assay type: cell-based; set-up: host or cells: HEK293-CRE beta-lactamase; details: for Emax: read-out: Intrinsic Activity (Human cAMP)
T1 sequence (Q8TDV5 1-335): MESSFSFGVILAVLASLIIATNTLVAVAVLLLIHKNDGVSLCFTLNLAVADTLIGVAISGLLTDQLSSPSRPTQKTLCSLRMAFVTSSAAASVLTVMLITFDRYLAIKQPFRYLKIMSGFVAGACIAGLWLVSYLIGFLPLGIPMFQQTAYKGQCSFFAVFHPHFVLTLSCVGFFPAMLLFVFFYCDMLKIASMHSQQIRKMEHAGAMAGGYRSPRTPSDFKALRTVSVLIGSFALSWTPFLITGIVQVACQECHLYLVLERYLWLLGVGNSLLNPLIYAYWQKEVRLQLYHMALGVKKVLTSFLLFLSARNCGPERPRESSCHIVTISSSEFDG
In short: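 hGPR119 HEK-CRE cells (5000/well), cultured overnight, then treated 30 min at room temperature with compound plus 400 microM IBMX (0.58% DMSO). cAMP measured by competitive HTRF immunoassay after 60 min lysis/detection, converted to nM via standard curve; EC50 from 4-parameter logistic fit.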

human GPR119 [2] = target: T1, human GPR119; experiment: β-Arrestin PathHunter assay (U2OS hGPR119 β-arrestin cells); assay type: cell-based; details: for pEC50: read-out: Human B-arrestin Functional EC50; for Emax: U2OS, read-out: Intrinsic Activity (Human B-arrestin)
Protocol: GPR119 agonist activity was also determined with a cell-based assay utilizing DiscoverX PathHunter β-arrestin cell assay technology and their U2OS hGPR119 β-arrestin cell line (DiscoverX Cat # 93-0356C3). In this assay, agonist activation is determined by measuring agonist-induced interaction of β-arrestin with activated GPR119. A small, 42 amino acid enzyme fragment, called ProLink was appended to the C-terminus of GPR119. Arrestin was fused to the larger enzyme fragment, termed EA (Enzyme Acceptor). Activation of GPR119 stimulates binding of arrestin and forces the complementation of the two enzyme fragments, resulting in formation of a functional β-galactosidase enzyme capable of hydrolyzing substrate and generating a chemiluminescent signal.
Specifically, U2OS hGPR119 β-arrestin cells (DiscoverX 1×10^7/mL) are removed from cryopreservation and diluted in growth medium (Minimum essential medium (MEM; Gibco Cat # 11095-080), 10% heat inactivated fetal bovine serum (HIFBS; Sigma Cat # F4135-100), […] sodium pyruvate (Sigma Cat # S8636), 500 microg/mL G418 (Sigma Cat # G8168) and 250 microg/mL Hygromycin B (Invitrogen Cat # 10687-010). The cell concentration was adjusted to 1.66×10^5 cells/mL and 30 mLs of this suspension was added to a T-175 flask and incubated at 37 degrees Celsius in a humidified environment in 5% carbon dioxide. After 24 hours, the cells were removed from the T-175 flask with enzyme-free cell dissociation buffer (Gibco cat #13151-014), centrifuged at 800×g and then re-suspended in plating medium (Opti-MEM I (Invitrogen/BRL Cat # 31985-070) and 2% charcoal dextran treated fetal bovine serum (CD serum; HyClone Cat # SH30068.03).
The cell concentration was adjusted to 2.5×10^5 cells/mL with plating medium and 20 microliters of this cell suspension (5000 cells) was added to each well of a white Greiner 384-well low volume assay plate (VWR cat #82051-458) and the plates were incubated at 37 degrees Celsius in a humidified environment in 5% carbon dioxide.
After 16 hours (overnight) the assay plates were removed from the incubator and varying concentrations of each compound to be tested (diluted in assay buffer (1×HBSS+CaCl2+MgCl2 (Gibco Cat # 14025-092), 20 mM HEPES pH 7.0 (Gibco Cat # 15630-080) and 0.1% BSA (Sigma Cat # A9576)) were added to the assay plate wells in a volume of 5 microliters (final DMSO concentration was 0.5%). After a 90 minute incubation at 37 degrees Celsius in a humidified environment in 5% carbon dioxide, 12 microliters of Galacton Star β-galactosidase substrate (PathHunter Detection Kit (DiscoveRx Cat # 93-0001); prepared as described in the manufacturers assay protocol) was added to each well of the assay plate. The plates were incubated at room temperature and after 60 minutes, changes in the luminescence were read with an Envision 2104 multilabel plate reader at 0.1 seconds per well. EC50 determinations were made from an agonist-response curves analyzed with a curve fitting program using a 4-parameter logistic dose response equation.

[3] = HTRF cAMP, 30 min, 400 microM IBMX, each line a separate determination
[4] = percent of maximal activity relative to standard GPR119 agonist at 10 micromolar
[5] = U2OS hGPR119 β-arrestin cells, 90 min, each line a separate determination
[6] = curve was extrapolated to 100% to calculate an EC50
[7] = marked **: curve was extrapolated to 100%

SMILES	pEC50 (human GPR119 [1]; [3])	Emax (human GPR119 [1]; [4]) [%]	Intrinsic Activity (Human cAMP) (human GPR119 [1]; [4])	pEC50 (human GPR119 [2]; [5])	Emax (human GPR119 [2]; [4]) [%]	also measured
CC(C)OC(=O)N1CCC(Oc2cc(N3CCc4cc(C(=O)N(C)C)ccc43)ncn2)CC1 [Example 9, 4-[6-(5-Dimethylcarbamoyl-2,3-dihydroindol-1-yl)-pyrimidin-4-yloxy]-piperidine-1-carboxylic acid isopropyl ester]	7.15	97.5				
Cc1c(O[C@H]2[C@@H]3COC[C@H]2CN(C(=O)OC2(C)CC2)C3)ncnc1N1CCc2ncccc21 [Example 25, 1-Methylcyclopropyl (9-anti)-9-{[6-(2,3-dihydro-1H-pyrrolo[3,2-b]pyridin-1-yl)-5-methylpyrimidin-4-yl]oxy}-3-oxa-7-azabicyclo[3.3.1]nonane-7-carboxylate]			52.9% and 68.3% and 67.7% and 74.3% and 62.9%	7.83 and 7.91 and 7.71 and 7.39 and 7.74		Intrinsic Activity (Human B-arrestin) (human GPR119 [2]; [4]): 58.7% and 81% and 78.6% and 68.6% and 74.5%
CC(C)OC(=O)N1CCC(Oc2cc(N3CCc4cc(S(C)(=O)=O)ccc43)ncn2)CC1 [Example 3, Isopropyl 4-({6-[5-(methylsulfonyl)-2,3-dihydro-1H-indol-1-yl]pyrimidin-4-yl}oxy)piperidine-1-carboxylate]	7.54 and 6.90 and 6.65 and 6.70 and 7.31 and 6.82 and 7.20 and 6.69 and 6.98		107%	7.66 and 7.83 and 7.14		Intrinsic Activity (Human B-arrestin) (human GPR119 [2]; [4]): 75.8% and 62.2% and 87.9%
CC(C)OC(=O)N1CCC(Oc2cc(N3CCc4cc(C#N)ccc43)ncn2)CC1 [Example 10, Isopropyl 4-{[6-(5-cyano-2,3-dihydro-1H-indol-1-yl)pyrimidin-4-yl]oxy}piperidine-1-carboxylate]	7.86 and 7.48	104	105%			
Cc1c(O[C@@H]2[C@@H]3COC[C@H]2CN(C(=O)OC(C)C)C3)ncnc1N1CCc2ncccc21 [Example 29, Isopropyl (9-syn)-9-{[6-(2,3-dihydro-1H-pyrrolo[3,2-b]pyridin-1-yl)-5-methylpyrimidin-4-yl]oxy}-3-oxa-7-azabicyclo[3.3.1]nonane-7-carboxylate]	< 5.00			< 5.00		
CC(C)OC(=O)N1CCC(Oc2cc(N3CCc4ncccc43)ncn2)CC1 [Example 12, Isopropyl 4-{[6-(2,3-dihydro-1H-pyrrolo[3,2-b]pyridin-1-yl)pyrimidin-4-yl]oxy}piperidine-1-carboxylate]	6.11 and 5.94 and 5.93 and 6.48 and 6.10	56	56.5% (2×) and 53.6% and 44%			pEC50 (human GPR119 [1]; [6]): 5.09 and 5.02 and 5.08; Intrinsic Activity (Human cAMP) (human GPR119 [1]; [7]): 100** %; Emax (human GPR119 [1]; [7]): 100%; Emax (human GPR119 [2]; [7]): 100%; pEC50 (human GPR119 [2]; [6]): 5.59
CC(C)OC(=O)N1C[C@H]2COC[C@@H](C1)[C@H]2Oc1cc(N2CCc3cc(S(C)(=O)=O)ccc32)ncn1 [Example 1, Isopropyl 9-anti-({6-[5-(methylsulfonyl)-2,3-dihydro-1H-indol-1-yl]pyrimidin-4-yl}oxy)-3-oxa-7-azabicyclo[3.3.1]nonane-7-carboxylate]	6.47 and 6.25 and 5.89	96.5	94% and 87.9%			
CCC1(OC(=O)N2C[C@H]3COC[C@@H](C2)[C@H]3Oc2ncnc(N3CCc4ncccc43)c2C)CC1 [Example 26, 1-Ethylcyclopropyl (9-anti)-9-{[6-(2,3-dihydro-1H-pyrrolo-[3,2-b]pyridin-1-yl)-5-methylpyrimidin-4-yl]oxy}-3-oxa-7-azabicyclo[3.3.1]nonane-7-carboxylate]	7.01 and 6.95 and 7.04 and 6.79		65.1% and 67.6% and 43.6% and 50%	7.62 and 7.74 and 7.67 and 7.58	68.6	Intrinsic Activity (Human B-arrestin) (human GPR119 [2]; [4]): 82.5% and 68.9% and 73.4%
CC(C)OC(=O)N1CCC(Oc2ncnc(N3CCc4cc(S(C)(=O)=O)ccc43)c2C#N)CC1 [Example 6, Isopropyl 4-({5-cyano-6-[5-(methylsulfonyl)-2,3-dihydro-1H-indol-1-yl]pyrimidin-4-yl}oxy)piperidine-1-carboxylate]	7.07 and 6.94	95.3	94.2%	8.32	70	
CC(C)(C)OC(=O)N1CCC(Oc2cc(N3CCc4cc(S(C)(=O)=O)ccc43)ncn2)C(F)C1 (racemic) [Example 15, tert-Butyl 3-fluoro-4-({6-[5-(methylsulfonyl)-2,3-dihydro-1H-indol-1-yl]pyrimidin-4-yl}oxy)piperidine-1-carboxylate]	7.99 and 7.89 and 7.31	92.5	102% and 93.5%	9.00	77.1	
Cc1c(O[C@H]2CCN(C(=O)OC3(C)CC3)C[C@H]2F)ncnc1N1CCc2ncccc21 [Example 17, 1-Methylcyclopropyl (3R,4S)-4-{[6-(2,3-dihydro-1H-pyrrolo[3,2-b]pyridin-1-yl)-5-methylpyrimidin-4-yl]oxy}-3-fluoropiperidine-1-carboxylate]	7.72 and 7.55 and 7.86 and 7.83 and 7.77 and 7.71		69.6% and 48.7% and 53.8% and 63.9% and 53.1% and 48.5%	8.67 and 8.23 and 8.18 and 8.30 and 8.33		Intrinsic Activity (Human B-arrestin) (human GPR119 [2]; [4]): 68.9% and 54.3% and 59.2% and 52.8% and 76.9%
Cc1c(O[C@@H]2[C@@H]3COC[C@H]2CN(C(=O)OC(C)C)C3)ncnc1N1CCc2cc(S(C)(=O)=O)ccc21 [Example 23, Isopropyl (9-syn)-9-({5-methyl-6-[5-(methylsulfonyl)-2,3-dihydro-1H-indol-1-yl]pyrimidin-4-yl}oxy)-3-oxa-7-azabicyclo[3.3.1]nonane-7-carboxylate]		26.3	27.9% and 29.5% and 16.7%		51.6	
Cc1c(OC2CCN(C(=O)OC(C)C)CC2)ncnc1N1CCc2cc(S(C)(=O)=O)ccc21 [Example 8, Isopropyl 4-({5-methyl-6-[5-(methylsulfonyl)-2,3-dihydro-1H-indol-1-yl]pyrimidin-4-yl}oxy)piperidine-1-carboxylate]	7.36	53				
CC(C)OC(=O)N1CCC(Oc2cc(N3CCc4cc(S(=O)(=O)CCO)ccc43)ncn2)CC1 [Example 11, Isopropyl 4-[(6-{5-[(2-hydroxyethyl)sulfonyl]-2,3-dihydro-1H-indol-1-yl}pyrimidin-4-yl)oxy]piperidine-1-carboxylate]	7.00	90.3				
Cc1c(O[C@H]2CCN(C(=O)OC(C)(C)C)C[C@H]2F)ncnc1N1CCc2ncccc21 (racemic) [Example 16, tert-Butyl (3R,4S)-4-{[6-(2,3-dihydro-1H-pyrrolo[3,2-b]pyridin-1-yl)-5-methylpyrimidin-4-yl]oxy}-3-fluoropiperidine-1-carboxylate (racemic)]	8.20 and 7.82 and 8.03	24.8	21.8% and 27.7%	8.56	48.6	
